Data as given in patent US12435038B2 (KUNMING SINOWAY NATURAL PHARMACEUTICALS CO., LTD., priority 2019, dated 2025).

How the values were obtained:
[1] = cited from earlier work
[2] = Powder properties of amlodipine mesylate monohydrate crystals (particle size distribution, carr index, angle of repose, bulk density); type: physicochemical; details: API crystals
Excerpt: The Carr index and angle of repose are indications of the flowability of a powdery material. To a certain extent, the Carr index is an indication of the compressibility of a powdery material. Carr index=(tap density-bulk density)/tap density*100%.
The angle of repose (α) refers to the maximum angle formed between the free inclined plane and the horizontal plane in a powder piled layer. The smaller the angle of repose (α) is, the better the flowability is. It is generally believed that the powder can flow freely if the a is less than 30°, and the flowability of the power is acceptable if the a is between 30° and 40°, while the power may have poor flowability if the a is greater than 40°.
The particle size of crystals can be measured by a Malvern Lazer Particle Analyzer which is a dry method. The particle size is related to the fluidity of a powder, and generally the larger the particle size is and the more concentrated the particle distribution is, the better the fluidity is. During the crystallization process, an average particle size (D50) of less than 15 μm may lead to difficulty in filtration and drying and easy to carry and absorb more impurities. Furthermore, the uniformity of particle size distribution can also have an impact on the properties of APIs.
(§1) Determination of other parameters of API or tablets of amlodipine mesylate monohydrate regarding quality such as water content, angle of repose, carr index, particle size, bulk density, and the like, is conduct with conventional methods well known to those skilled in the art.

[3] = Accelerated test of the API (sealed in aluminum-plastic composite film bags, 40° C., 75% RH); type: physicochemical; details: mesylate monohydrate
Excerpt: as §1

Row | Molecule | Bulk density [2] | Carr index [2] | angle of repose [2] | fluidity (words, from carr index and angle of repose) [2] | particle size distribution D10 [2] | particle size distribution D50 [2] | particle size distribution D90 [2] | Average particle size ([3]; 0 month) | Bulk density ([3]; 0 month) | Carr index ([3]; 0 month) | Character ([3]; 0 month) | Content ([3]; 0 month) | Related substance ([3]; 0 month) | Water content ([3]; 0 month) | Average particle size ([3]; 3 months) | Bulk density ([3]; 3 months) | Carr index ([3]; 3 months) | Content ([3]; 3 months) | Related substance ([3]; 3 months) | Water content ([3]; 3 months) | also measured
1 | CCOC(=O)C1=C(COCCN)NC(C)=C(C(=O)OC)C1c1ccccc1Cl (stereo not shown) [Amlodipine free base, Amlodipine] | – | – | – | – | – | – | – | – | – | – | – | – | – | – | – | – | – | – | – | – | water solubility [1]: poor water solubility
2 | amlodipine mesylate monohydrate | – | – | – | – | – | – | – | – | – | – | – | – | – | – | – | – | – | – | – | – | water solubility [1]: easily soluble in water; solubility relative to that of amlodipine besylate ([1]; in water): more than 10 time
3 | amlodipine mesylate monohydrate [Comparative Example 1, reference compound] | 0.22 g/mL | 41% | 46 ° | poor fluidity | 1.73 μm | 6.70 μm | 16.4 μm | 6.70 μm | 0.22 g/mL | 41% | White like | 99.89% | 0.12% | 3.49% | 5.96 μm | 0.25 g/mL | 42% | 99.81% | 0.18% | 3.48% | Average particle size ([3]; 6 months): 6.93 μm; Bulk density ([3]; 6 months): 0.26 g/mL; Carr index ([3]; 6 months): 43%; Character ([3]; 6 months): Yellow; Content ([3]; 6 months): 99.71%; Related substance ([3]; 6 months): 0.23%; Water content ([3]; 6 months): 3.51%
4 | amlodipine mesylate monohydrate [Comparative Example 2, reference compound] | 0.26 g/mL | 42% | 45 ° | poor fluidity | 1.62 μm | 6.22 μm | 14.1 μm | 6.22 μm | 0.26 g/mL | 42% | White like | 99.82% | 0.11% | 3.57% | 5.89 μm | 0.27 g/mL | 41% | 99.71% | 0.18% | 3.52% | Character ([3]; 3 months): Light yellow; Average particle size ([3]; 6 months): 6.74 μm; Bulk density ([3]; 6 months): 0.25 g/mL; Carr index ([3]; 6 months): 44%; Character ([3]; 6 months): Yellow solid; Content ([3]; 6 months): 99.62%; Related substance ([3]; 6 months): 0.26%; Water content ([3]; 6 months): 3.53%
5 | amlodipine mesylate monohydrate [Example 1] | 0.32 g/mL | 23% | 29 ° | good fluidity | 33.9 μm | 70.2 μm | 121 μm | 70.2 μm | 0.32 g/mL | 23% | White solid | 99.92% | 0.07% | 3.51% | 70.6 μm | 0.31 g/mL | 23% | 99.78% | 0.07% | 3.49% | Character ([3]; 3 months): White solid; Average particle size ([3]; 6 months): 69.5 μm; Bulk density ([3]; 6 months): 0.33 g/mL; Carr index ([3]; 6 months): 24%; Character ([3]; 6 months): White solid; Content ([3]; 6 months): 99.71%; Related substance ([3]; 6 months): 0.08%; Water content ([3]; 6 months): 3.50%
6 | amlodipine mesylate monohydrate [Example 2] | 0.33 g/mL | 23% | 31 ° | good fluidity | 34.8 μm | 72.1 μm | 126 μm | 72.1 μm | 0.33 g/mL | 23% | White solid | 99.95% | 0.06% | 3.51% | 71.8 μm | 0.32 g/mL | 24% | 99.81% | 0.07% | 3.52% | Character ([3]; 3 months): White solid; Average particle size ([3]; 6 months): 72.4 μm; Bulk density ([3]; 6 months): 0.32 g/mL; Carr index ([3]; 6 months): 24%; Character ([3]; 6 months): White solid; Content ([3]; 6 months): 99.73%; Related substance ([3]; 6 months): 0.08%; Water content ([3]; 6 months): 3.49%
7 | amlodipine mesylate monohydrate [Example 3] | 0.30 g/mL | 24% | 33 ° | good fluidity | 32.9 μm | 70.1 μm | 124 μm | 70.1 μm | 0.30 g/mL | 24% | White solid | 99.93% | 0.07% | 3.50% | 69.5 μm | 0.31 g/mL | 23% | 99.82% | 0.08% | 3.48% | Character ([3]; 3 months): White solid; Average particle size ([3]; 6 months): 71.4 μm; Bulk density ([3]; 6 months): 0.32 g/mL; Carr index ([3]; 6 months): 25%; Character ([3]; 6 months): White solid; Content ([3]; 6 months): 99.71%; Related substance ([3]; 6 months): 0.10%; Water content ([3]; 6 months): 3.49%
8 | amlodipine mesylate monohydrate [Experimental Example 1] | – | – | – | – | 43 μm | 92 μm | 151 μm | – | – | – | – | – | – | – | – | – | – | – | – | – | –
9 | amlodipine mesylate monohydrate [Experimental Example 2] | – | – | – | – | 32 μm | 68 μm | 117 μm | – | – | – | – | – | – | – | – | – | – | – | – | – | –
10 | amlodipine mesylate monohydrate [Experimental Example 3] | – | – | – | – | 34 μm | 69 μm | 120 μm | – | – | – | – | – | – | – | – | – | – | – | – | – | –
